The values below come from paper PMC7534598 (iScience, 2020).

In assay [1] the target is T1, furin (Homo sapiens, UniProt P09958). Briefly: enzyme inhibition at a single concentration of […]. The following applies: read-out: % inhibition at 100 μM. The format is biochemical.
Assay [2] addresses T1, furin. It counts as biochemical.

T1 sequence (P09958 108-794): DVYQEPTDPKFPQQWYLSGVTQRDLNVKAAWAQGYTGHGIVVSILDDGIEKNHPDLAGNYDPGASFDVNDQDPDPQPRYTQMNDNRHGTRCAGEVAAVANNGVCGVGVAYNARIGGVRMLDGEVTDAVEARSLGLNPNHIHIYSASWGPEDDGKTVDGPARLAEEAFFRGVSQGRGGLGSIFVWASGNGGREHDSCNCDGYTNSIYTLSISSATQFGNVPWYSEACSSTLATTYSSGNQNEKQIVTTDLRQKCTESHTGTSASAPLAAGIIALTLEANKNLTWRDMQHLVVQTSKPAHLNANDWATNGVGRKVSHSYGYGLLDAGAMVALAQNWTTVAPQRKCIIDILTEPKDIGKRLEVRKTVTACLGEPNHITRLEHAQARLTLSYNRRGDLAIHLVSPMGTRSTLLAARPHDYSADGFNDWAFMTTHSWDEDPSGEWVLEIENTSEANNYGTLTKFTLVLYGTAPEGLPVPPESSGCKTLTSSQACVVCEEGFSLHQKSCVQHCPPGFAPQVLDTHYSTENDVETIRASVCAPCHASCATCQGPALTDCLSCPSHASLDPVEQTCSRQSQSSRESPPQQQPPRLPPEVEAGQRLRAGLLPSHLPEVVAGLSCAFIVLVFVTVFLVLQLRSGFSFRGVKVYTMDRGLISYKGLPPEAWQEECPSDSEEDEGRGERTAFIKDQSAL

By inhibition is commonly meant the share of the control response that was lost under treatment. Consider `Nc1nc(N)c2nc(CNc3ccc(C(=O)N[C@@H](CCC(=O)O)C(=O)O)cc3)cnc2n1` [aminopterin], for which the inhibition at 100 µM on furin [1] is over 70%.
Turning to `CN(Cc1cnc2nc(N)nc(N)c2n1)c1ccc(C(=O)N[C@@H](CCC(=O)O)C(=O)O)cc1` [methotrexate], the inhibition at 100 µM on furin [1] was over 70%.
For `COc1cc(C2Oc3cc([C@H]4Oc5cc(O)cc(O)c5C(=O)[C@@H]4O)ccc3OC2CO)ccc1O` (stereo partly shown) [silybin], at furin [1], the inhibition at 100 µM is over 70%.
One may read the IC50 as the concentration needed to halve the response being measured. Low values mean greater potency, high ones weaker potency. As for `N=C(N)c1ccc(/N=N/Nc2ccc(C(=N)N)cc2)cc1` [diminazene], on furin [2], half-maximal inhibition (IC50) required 5.42 ± 0.11 µM.
